{"source": "paper PMC12566511", "about": "“The Evaluation of (1R,4R,7R,10R)-α,α′,α″,α‴-Tetramethyl-1,4,7,10-tetraazacyclododecane-1,4,7,10-tetraacetic Acid (DOTMA) as a Chelator for Zirconium-89” (Molecules, 2025)", "key": {"[1]": {"test": "In vitro EDTA challenge study", "format": "physicochemical", "details": "for % Intact of [^89Zr]Zr-Complex (n = 3): 37 °C, radio-ITLC", "method": "The solutions (n = 3) were incubated at 37 °C for 7 days in a thermomixer. Samples were analyzed at 0, 1, 3, 5, and 7 days post administration to EDTA using radio-TLC, Varian ITLC-SA strips, 50 mM EDTA (pH 5) as the mobile phase, and gamma counting. All studies were performed in triplicate."}, "[2]": {"test": "In vitro metal competition study", "format": "physicochemical", "details": "for % Intact of [^89Zr]Zr-Complex (n = 3): PBS pH 7.4, 37 °C, radio-ITLC", "method": "To separate solutions of metal cations (iron(III) chloride, cobalt(II) chloride, zinc(II) chloride, copper(II) chloride, magnesium(II) chloride, gallium(III) nitrate, and gadolinium(III) chloride) (1.0 mM, 200 μL), [^89Zr]Zr-DOTMA complex (0.1 mM, 20 μL, 110−119 μCi, 4.1–4.4 MBq) in PBS (pH 7.4) was added. The resulting solutions (n = 3) were incubated at 37 °C for 7 days in a thermomixer. Dissociation of ^89Zr from [^89Zr]Zr-DOTMA complex was monitored by radio-TLC at 0, 1, 3, 5, and 7 days using radio-TLC, Varian ITLC-SA strips, 50 mM EDTA (pH 5) as the mobile phase, and gamma counting. All studies were performed in triplicate."}}, "note": "Entries after “also recorded” stand apart in the source; their conditions may differ.", "data": [{"smiles": "CC(C(=O)[O-])N1CCN(C(C)C(=O)[O-])CCN(C(C)C(=O)[O-])CCN(C(C)C(=O)[O-])CC1.[89Zr+4]", "note": "(stereo not shown) [[^89Zr]Zr-DOTMA]", "values": [{"measurement": "stability to excess EDTA challenge (in words)", "setting": "[1]; 1000-fold excess EDTA, pH 5 or pH 7, seven-day time course", "value": "inert; also recorded: stable"}, {"measurement": "% Intact of [^89Zr]Zr-Complex (n = 3)", "setting": "[1]; EDTA 100-fold, pH 5.0, 0 h", "value": "≥99.99", "unit": "%"}, {"measurement": "% Intact of [^89Zr]Zr-Complex (n = 3)", "setting": "[1]; EDTA 100-fold, pH 5.0, 1 d", "value": "≥99.99", "unit": "%"}, {"measurement": "% Intact of [^89Zr]Zr-Complex (n = 3)", "setting": "[1]; EDTA 100-fold, pH 5.0, 3 d", "value": "≥99.99", "unit": "%"}, {"measurement": "% Intact of [^89Zr]Zr-Complex (n = 3)", "setting": "[1]; EDTA 100-fold, pH 5.0, 5 d", "value": "≥99.99", "unit": "%"}, {"measurement": "% Intact of [^89Zr]Zr-Complex (n = 3)", "setting": "[1]; EDTA 100-fold, pH 5.0, 7 d", "value": "≥99.99", "unit": "%"}, {"measurement": "% Intact of [^89Zr]Zr-Complex (n = 3)", "setting": "[1]; EDTA 100-fold, pH 7.0, 0 h", "value": "≥99.99", "unit": "%"}, {"measurement": "% Intact of [^89Zr]Zr-Complex (n = 3)", "setting": "[1]; EDTA 100-fold, pH 7.0, 1 d", "value": "≥99.99", "unit": "%"}, {"measurement": "% Intact of [^89Zr]Zr-Complex (n = 3)", "setting": "[1]; EDTA 100-fold, pH 7.0, 3 d", "value": "≥99.99", "unit": "%"}, {"measurement": "% Intact of [^89Zr]Zr-Complex (n = 3)", "setting": "[1]; EDTA 100-fold, pH 7.0, 5 d", "value": "≥99.99", "unit": "%"}, {"measurement": "% Intact of [^89Zr]Zr-Complex (n = 3)", "setting": "[1]; EDTA 100-fold, pH 7.0, 7 d", "value": "≥99.99", "unit": "%"}, {"measurement": "% Intact of [^89Zr]Zr-Complex (n = 3)", "setting": "[1]; EDTA 500-fold, pH 5.0, 0 h", "value": "≥99.99", "unit": "%"}, {"measurement": "% Intact of [^89Zr]Zr-Complex (n = 3)", "setting": "[1]; EDTA 500-fold, pH 5.0, 1 d", "value": "≥99.99", "unit": "%"}, {"measurement": "% Intact of [^89Zr]Zr-Complex (n = 3)", "setting": "[1]; EDTA 500-fold, pH 5.0, 3 d", "value": "≥99.99", "unit": "%"}, {"measurement": "% Intact of [^89Zr]Zr-Complex (n = 3)", "setting": "[1]; EDTA 500-fold, pH 5.0, 5 d", "value": "≥99.99", "unit": "%"}, {"measurement": "% Intact of [^89Zr]Zr-Complex (n = 3)", "setting": "[1]; EDTA 500-fold, pH 5.0, 7 d", "value": "≥99.99", "unit": "%"}, {"measurement": "% Intact of [^89Zr]Zr-Complex (n = 3)", "setting": "[1]; EDTA 500-fold, pH 7.0, 0 h", "value": "≥99.99", "unit": "%"}, {"measurement": "% Intact of [^89Zr]Zr-Complex (n = 3)", "setting": "[1]; EDTA 500-fold, pH 7.0, 1 d", "value": "≥99.99", "unit": "%"}, {"measurement": "% Intact of [^89Zr]Zr-Complex (n = 3)", "setting": "[1]; EDTA 500-fold, pH 7.0, 3 d", "value": "≥99.99", "unit": "%"}, {"measurement": "% Intact of [^89Zr]Zr-Complex (n = 3)", "setting": "[1]; EDTA 500-fold, pH 7.0, 5 d", "value": "≥99.99", "unit": "%"}, {"measurement": "% Intact of [^89Zr]Zr-Complex (n = 3)", "setting": "[1]; EDTA 500-fold, pH 7.0, 7 d", "value": "≥99.99", "unit": "%"}, {"measurement": "% Intact of [^89Zr]Zr-Complex (n = 3)", "setting": "[1]; EDTA 1000-fold, pH 5.0, 0 h", "value": "≥99.99", "unit": "%"}, {"measurement": "% Intact of [^89Zr]Zr-Complex (n = 3)", "setting": "[1]; EDTA 1000-fold, pH 5.0, 1 d", "value": "≥99.99", "unit": "%"}, {"measurement": "% Intact of [^89Zr]Zr-Complex (n = 3)", "setting": "[1]; EDTA 1000-fold, pH 5.0, 3 d", "value": "≥99.99", "unit": "%"}, {"measurement": "% Intact of [^89Zr]Zr-Complex (n = 3)", "setting": "[1]; EDTA 1000-fold, pH 5.0, 5 d", "value": "≥99.99", "unit": "%"}, {"measurement": "% Intact of [^89Zr]Zr-Complex (n = 3)", "setting": "[1]; EDTA 1000-fold, pH 5.0, 7 d", "value": "≥99.99", "unit": "%"}, {"measurement": "% Intact of [^89Zr]Zr-Complex (n = 3)", "setting": "[1]; EDTA 1000-fold, pH 7.0, 0 h", "value": "≥99.99", "unit": "%"}, {"measurement": "% Intact of [^89Zr]Zr-Complex (n = 3)", "setting": "[1]; EDTA 1000-fold, pH 7.0, 1 d", "value": "≥99.99", "unit": "%"}, {"measurement": "% Intact of [^89Zr]Zr-Complex (n = 3)", "setting": "[1]; EDTA 1000-fold, pH 7.0, 3 d", "value": "≥99.99", "unit": "%"}, {"measurement": "% Intact of [^89Zr]Zr-Complex (n = 3)", "setting": "[1]; EDTA 1000-fold, pH 7.0, 5 d", "value": "≥99.99", "unit": "%"}, {"measurement": "% Intact of [^89Zr]Zr-Complex (n = 3)", "setting": "[1]; EDTA 1000-fold, pH 7.0, 7 d", "value": "≥99.99", "unit": "%"}, {"measurement": "% Intact of [^89Zr]Zr-Complex (n = 3)", "setting": "[2]; Co^2+, 0 h", "value": "≥99.99", "unit": "%"}, {"measurement": "% Intact of [^89Zr]Zr-Complex (n = 3)", "setting": "[2]; Co^2+, 1 d", "value": "≥99.99", "unit": "%"}, {"measurement": "% Intact of [^89Zr]Zr-Complex (n = 3)", "setting": "[2]; Co^2+, 3 d", "value": "≥99.99", "unit": "%"}, {"measurement": "% Intact of [^89Zr]Zr-Complex (n = 3)", "setting": "[2]; Co^2+, 5 d", "value": "≥99.99", "unit": "%"}, {"measurement": "% Intact of [^89Zr]Zr-Complex (n = 3)", "setting": "[2]; Co^2+, 7 d", "value": "≥99.99", "unit": "%"}, {"measurement": "% Intact of [^89Zr]Zr-Complex (n = 3)", "setting": "[2]; Cu^2+, 0 h", "value": "≥99.99", "unit": "%"}, {"measurement": "% Intact of [^89Zr]Zr-Complex (n = 3)", "setting": "[2]; Cu^2+, 1 d", "value": "≥99.99", "unit": "%"}, {"measurement": "% Intact of [^89Zr]Zr-Complex (n = 3)", "setting": "[2]; Cu^2+, 3 d", "value": "≥99.99", "unit": "%"}, {"measurement": "% Intact of [^89Zr]Zr-Complex (n = 3)", "setting": "[2]; Cu^2+, 5 d", "value": "≥99.99", "unit": "%"}, {"measurement": "% Intact of [^89Zr]Zr-Complex (n = 3)", "setting": "[2]; Cu^2+, 7 d", "value": "≥99.99", "unit": "%"}, {"measurement": "% Intact of [^89Zr]Zr-Complex (n = 3)", "setting": "[2]; Fe^3+, 0 h", "value": "≥99.99", "unit": "%"}, {"measurement": "% Intact of [^89Zr]Zr-Complex (n = 3)", "setting": "[2]; Fe^3+, 1 d", "value": "≥99.99", "unit": "%"}, {"measurement": "% Intact of [^89Zr]Zr-Complex (n = 3)", "setting": "[2]; Fe^3+, 3 d", "value": "≥99.99", "unit": "%"}, {"measurement": "% Intact of [^89Zr]Zr-Complex (n = 3)", "setting": "[2]; Fe^3+, 5 d", "value": "≥99.99", "unit": "%"}, {"measurement": "% Intact of [^89Zr]Zr-Complex (n = 3)", "setting": "[2]; Fe^3+, 7 d", "value": "≥99.99", "unit": "%"}, {"measurement": "demetallation when challenged with high concentrations of metal ions (in words)", "setting": "[2]; Fe^3+, Co^2+, Zn^2+, Cu^2+, Mg^2+, Ga^3+ or Gd^3+ ions, seven-day time course", "value": "inert; also recorded: no demetallation"}, {"measurement": "% Intact of [^89Zr]Zr-Complex (n = 3)", "setting": "[2]; Ga^3+, 0 h", "value": "≥99.99", "unit": "%"}, {"measurement": "% Intact of [^89Zr]Zr-Complex (n = 3)", "setting": "[2]; Ga^3+, 1 d", "value": "≥99.99", "unit": "%"}, {"measurement": "% Intact of [^89Zr]Zr-Complex (n = 3)", "setting": "[2]; Ga^3+, 3 d", "value": "≥99.99", "unit": "%"}, {"measurement": "% Intact of [^89Zr]Zr-Complex (n = 3)", "setting": "[2]; Ga^3+, 5 d", "value": "≥99.99", "unit": "%"}, {"measurement": "% Intact of [^89Zr]Zr-Complex (n = 3)", "setting": "[2]; Ga^3+, 7 d", "value": "≥99.99", "unit": "%"}, {"measurement": "% Intact of [^89Zr]Zr-Complex (n = 3)", "setting": "[2]; Gd^3+, 0 h", "value": "≥99.99", "unit": "%"}, {"measurement": "% Intact of [^89Zr]Zr-Complex (n = 3)", "setting": "[2]; Gd^3+, 1 d", "value": "≥99.99", "unit": "%"}, {"measurement": "% Intact of [^89Zr]Zr-Complex (n = 3)", "setting": "[2]; Gd^3+, 3 d", "value": "≥99.99", "unit": "%"}, {"measurement": "% Intact of [^89Zr]Zr-Complex (n = 3)", "setting": "[2]; Gd^3+, 5 d", "value": "≥99.99", "unit": "%"}, {"measurement": "% Intact of [^89Zr]Zr-Complex (n = 3)", "setting": "[2]; Gd^3+, 7 d", "value": "≥99.99", "unit": "%"}, {"measurement": "% Intact of [^89Zr]Zr-Complex (n = 3)", "setting": "[2]; Mg^2+, 0 h", "value": "≥99.99", "unit": "%"}, {"measurement": "% Intact of [^89Zr]Zr-Complex (n = 3)", "setting": "[2]; Mg^2+, 1 d", "value": "≥99.99", "unit": "%"}, {"measurement": "% Intact of [^89Zr]Zr-Complex (n = 3)", "setting": "[2]; Mg^2+, 3 d", "value": "≥99.99", "unit": "%"}, {"measurement": "% Intact of [^89Zr]Zr-Complex (n = 3)", "setting": "[2]; Mg^2+, 5 d", "value": "≥99.99", "unit": "%"}, {"measurement": "% Intact of [^89Zr]Zr-Complex (n = 3)", "setting": "[2]; Mg^2+, 7 d", "value": "≥99.99", "unit": "%"}, {"measurement": "% Intact of [^89Zr]Zr-Complex (n = 3)", "setting": "[2]; Zn^2+, 0 h", "value": "≥99.99", "unit": "%"}, {"measurement": "% Intact of [^89Zr]Zr-Complex (n = 3)", "setting": "[2]; Zn^2+, 1 d", "value": "≥99.99", "unit": "%"}, {"measurement": "% Intact of [^89Zr]Zr-Complex (n = 3)", "setting": "[2]; Zn^2+, 3 d", "value": "≥99.99", "unit": "%"}, {"measurement": "% Intact of [^89Zr]Zr-Complex (n = 3)", "setting": "[2]; Zn^2+, 5 d", "value": "≥99.99", "unit": "%"}, {"measurement": "% Intact of [^89Zr]Zr-Complex (n = 3)", "setting": "[2]; Zn^2+, 7 d", "value": "≥99.99", "unit": "%"}]}]}
